Read-outs that look alike come from different tables or passages of the source.
Key:
BT-12 cells = test: Secondary screening; assay type: cell-based, human
in vitro [1] = settings: human, primary human astrocytes
BT-16 cells = test: Secondary screening; assay type: cell-based, human
[2] = acute use for gout flares, doses up to 1.8 mg within 2 hours; cited from earlier work
in vitro [3] = settings: human
[4] = test system: human cerebral microvascular endothelial cells (hCMEC/D3 cells)
primary human astrocytes = test: Cytotoxicity test
[5] = Homo sapiens, BT-12, 72 h, read-out: BT-12 cells IC50, 2D culture, 72 h, MTT
[6] = read-out: BT-12 cells IC50, 2D culture, 72 h, MTT
[7] = Homo sapiens, BT-16, 72 h, read-out: BT-16 cells IC50, 2D culture, 72 h, MTT
[8] = read-out: BT-16 cells IC50, 2D culture, 72 h, MTT

| IC50 (BT-12 cells; [5]) | IC50 (BT-16 cells; [7]) | Structure (SMILES) | IC50 (BT-12 cells; [6]) | CC50 at 72 h (in vitro [1]) | IC50 (BT-16 cells; [8]) | Diarrhea, most frequently reported side effect [2] | CC50 at 72 h (in vitro [3]) | SI (CC50/IC50) hCMEC/D3: BT-12 ([4]; CC50 hCMEC/D3 / IC50 BT-12) | SI (CC50/IC50) hCMEC/D3: BT-16 ([4]; CC50 hCMEC/D3 / IC50 BT-16) | SI (CC50/IC50) Astrocytes: BT-12 (primary human astrocytes; CC50 astrocytes / IC50 BT-12) | SI (CC50/IC50) Astrocytes: BT-16 (primary human astrocytes; CC50 astrocytes / IC50 BT-16) |
| --- | --- | --- | --- | --- | --- | --- | --- | --- | --- | --- | --- |
| < 0.1 µM | < 0.1 µM | C[C@H]1O[C@@H](O[C@H]2[C@@H](O)C[C@H](O[C@H]3[C@@H](O)C[C@H](O[C@H]4CC[C@@]5(C)[C@H](CC[C@@H]6[C@@H]5C[C@@H](O)[C@]5(C)[C@@H](C7=CC(=O)OC7)CC[C@]65O)C4)O[C@@H]3C)O[C@@H]2C)C[C@H](O)[C@@H]1O [Digoxin] | 0.08 µM |  | 0.076 µM |  |  |  |  |  |  |
|  |  | COc1cc2c(c(OC)c1OC)-c1ccc(OC)c(=O)cc1[C@@H](NC(C)=O)CC2 [Colchicine] |  | > 20 µM |  | 23% | > 20 µM |  |  |  |  |
| 0.028 µM | 0.042 µM | COc1cccc2c1C(=O)c1c(O)c3c(c(O)c1C2=O)C[C@@](O)(C(=O)CO)C[C@@H]3O[C@H]1C[C@H](N)[C@H](O)[C@H](C)O1 [Doxorubicin] |  | 0.131 µM |  |  | 0.699 µM | 24.964 | 16.64 | 4.679 | 3.119 |

| Structure (SMILES) | IC50 (BT-12 cells; [5]) | IC50 (BT-16 cells; [7]) | IC50 (BT-12 cells; [6]) | CC50 at 72 h (in vitro [1]) | IC50 (BT-16 cells; [8]) | Diarrhea, most frequently reported side effect [2] | CC50 at 72 h (in vitro [3]) | SI (CC50/IC50) hCMEC/D3: BT-12 ([4]; CC50 hCMEC/D3 / IC50 BT-12) | SI (CC50/IC50) hCMEC/D3: BT-16 ([4]; CC50 hCMEC/D3 / IC50 BT-16) | SI (CC50/IC50) Astrocytes: BT-12 (primary human astrocytes; CC50 astrocytes / IC50 BT-12) | SI (CC50/IC50) Astrocytes: BT-16 (primary human astrocytes; CC50 astrocytes / IC50 BT-16) |
| --- | --- | --- | --- | --- | --- | --- | --- | --- | --- | --- | --- |
| CC[C@H]1CN2CCc3cc(OC)c(OC)cc3[C@@H]2C[C@@H]1C[C@H]1NCCc2cc(OC)c(OC)cc21 [Emetine] | < 0.1 µM | < 0.1 µM | 0.09 µM | 1.24 µM | 0.093 µM |  |  |  |  |  |  |
